Laboratory results from patent US20160108391A1, “REAGENT COMPOSITIONS HAVING PYRIDINE-CARBOXYLIC ACID-[…], AS WELL AS METHODS OF MAKING AND USING THE SAME” (Roche Diabetes Care, Inc., priority 2013, published 2016).

System: glucose dehydrogenase mutant 2
Details: cNAD instead of NAD, increasing amounts of nicotinic acid
Protocol: Methods: test elements with added nicotinic acid were prepared and analog to Example 1, but with adding coenzyme cNAD (see, Int'l Patent Application Publication No. WO 2007/012494) instead of NAD (same amount on molar basis).
Consequently, test elements were stored: (a) in open vials at 85% r.h. and 35° C., or (b) in closed vials with desiccant at 35° C.

O=C(O)c1cccnc1 [nicotinic acid, pyridine-3-carboxylic acid]
stabilizing effect on remaining enzymatic activity, dry conditions (closed vials with desiccant at 35° C., FIG. 3b): significant stabilizing effect | stabilizing effect on remaining enzymatic activity, humid conditions (open vials at 85% r.h. and 35° C., FIG. 3a): significant stabilizing effect
